Consider seven molecules from paper PMC11440508, “Dually Labeled Neurotensin NTS1R Ligands for Probing Radiochemical and Fluorescence-Based Binding Assays” (Journal of Medicinal Chemistry, 2024).

Like-named read-outs stand apart in the source and are kept apart here. Starred links: 1 amine or outer side, 2 acyl side, 3 side chain; linkers in the order of their positions; H or OH if unused. Non-standard residues stand in square brackets, D forms with d. Residues, ends and D or L forms follow the SMILES beside them. Groups on a side chain read outwards from the residue. *: point of attachment. X1 = CN(C)c1ccc2c(-c3ccc(C(=O)*)cc3C(=O)[O-])c3ccc(=[N+](C)C)cc-3oc2c1; X4 = NCCCCNC(=O)N=C(N)NCCC[C@H](N[*:1])C(=O)[*:2]; dTyr(β,β-Me2) = CC(C)(c1ccc(O)cc1)[C@@H](N)C(=O)O; Tyr(β,β-Me2) = CC(C)(c1ccc(O)cc1)[C@H](N)C(=O)O; Gly(piperidin-4-yl) = N[C@H](C(=O)O)C1CCNCC1; X2 = O=C(CCc1cn(CCCN[*:1])nn1)[*:2]; Pent4ynoyl = C#CCCC(=O)*; Pra = C#CC[C@H](N)C(=O)O; NH(CH2)4NH2 = NCCCCN*; CO = O=C([*:1])[*:2]; Propionyl = CCC(=O)*; GABA = NCCCC(=O)O

The target in experiment [1] is T1, NTS1R (Homo sapiens, UniProt P30989). Put plainly: Radioligand competition binding with [^3H]UR-MK300 at intact HT-29 colon carcinoma cells. Conditions: [^3H]UR-MK300, intact HT-29 cells, 23 °C; read-out: NTS1R pKi ± SEM (converted). The protocol: NTS1R binding affinities were determined in a reported competition binding assay[13] using intact hNTS1R-expressing HT-29 colon carcinoma cells and [^3H]UR-MK300 (structure see Figure 1A) as radioligand (competition binding curves shown in Figure S4, Supporting Information).
T1 sequence (P30989 whole entry): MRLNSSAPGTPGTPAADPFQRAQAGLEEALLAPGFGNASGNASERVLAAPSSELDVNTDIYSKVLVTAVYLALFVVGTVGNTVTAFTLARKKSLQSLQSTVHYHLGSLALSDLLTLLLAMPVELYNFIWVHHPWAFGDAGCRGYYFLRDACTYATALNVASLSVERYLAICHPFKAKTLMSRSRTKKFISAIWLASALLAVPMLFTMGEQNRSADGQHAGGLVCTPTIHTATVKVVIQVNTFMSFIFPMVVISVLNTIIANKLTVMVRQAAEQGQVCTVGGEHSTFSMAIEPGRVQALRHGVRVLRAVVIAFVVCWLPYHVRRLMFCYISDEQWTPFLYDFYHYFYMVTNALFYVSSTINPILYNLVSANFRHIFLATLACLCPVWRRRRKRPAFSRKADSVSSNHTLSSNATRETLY
NTS1R radioligand competition binding experiments with [^3H]UR-MK300 (molar activity: 2.41 TBq/mmol) and the peptides 6–9, 10a, 10b, 13–16, and 18 were performed with intact hNTS1R-expressing human HT-29 colon carcinoma cells at 23 ± 1 °C using a previously reported protocol.[13] […] Cells were seeded one day before the assay, yielding a confluency of at least 90% on the day of the experiment. Total binding data (including total binding in the absence of competitor) were plotted as dpm values against log(concentration competitor) and analyzed by a four-parameter logistic equation (log(inhibitor) vs response–variable slope, GraphPad Prism 5, GraphPad Software, San Diego, CA) to obtain pIC50 values. Individual pIC50 values were converted to pKi values according to the Cheng–Prusoff equation[60] (logarithmic form). To plot average data from individual binding experiments, data were normalized (100% = “top” of the four-parameter logistic fit, 0% = unspecifically bound radioligand).
(In general: In a radioligand displacement assay an active substance lowers the binding of a labelled ligand.)

Experiment [2] addresses T1, NTS1R. Put plainly: Fura-2 Ca^2+ assay at CHO-hNTS1R cells. The format is cell-based. Conditions: agonist mode, read-out: NTS1R pEC50 ± SEM (converted).
Experiment [3] addresses T1, NTS1R. Description: Radiochemical competition binding, adherent CHO-hNTS1R cells. Conditions: labeled probe [^3H]13 (1.3 nM), 90 min, 23 °C.
Experiment [4] has as its target T1, NTS1R. Put plainly: Fluorescence anisotropy (FA) competition binding at hNTS1R-displaying BBVs. Also on record: NlucC (C-terminal fragment of nanoluciferase, 11 amino acids) (C); made in house; host or cells: Sf9 insect cells, baculovirus (pIMACE-CMVintP10-hNTS1R-Nluc, DH10MultiBac); budded baculovirus particles. Conditions: 27 °C. In general terms: Polarisation of emitted light reports the rotation of a fluorescent probe.

Experiment [5] deals with T1, NTS1R. Put plainly: Flow cytometric (FC) competition binding, suspended CHO-hNTS1R cells. Conditions: labeled probe 13 (2.6 nM), 90 min, 23 °C. The protocol:
Flow cytometry-based NTS1R binding studies were performed with intact CHO-hNTS1R (all kind of experiments) and HT-29 cells (only saturation binding) using a BD FACSCanto II (Becton Dickinson, Heidelberg, Germany), equipped with an argon laser (488 nm) and a red diode laser (640 nm), and a BD High Throughput Sampler (HTS unit) for microtiter plates. Saturation and competition binding experiments were performed in triplicate in 96-well polypropylene plates (Brand 701330, Wertheim, Germany) using the HTS unit for sample injection. Association and dissociation experiments were performed in duplicate in 5 mL polypropylene tubes (VWR, Radnor) using the standard injection port of the flow cytometer. The following gain settings for forward and sideward scatter were applied: FSC, 0 V; SSC, 252 V. Fluorescence was recorded using the PE-channel (excitation: 488 nm, emission: 585 ± 21) nm with a PMT gain of 330–400 V. For measurements using the HTS unit, 45 μL of the sample were injected with a speed of 1.5 μL/s. For measurements, requiring the use of the standard injection port, the medium flow rate ([…]) was used. Measurements were stopped after 30 s (HTS unit) or after counting of 500–3000 gated events (standard injection port). […]
A 96-well polypropylene plate was prefilled with 200 μL of cell suspension. […] Data were analyzed as described for HCI competition binding experiments.
On the technique in general: Flow cytometry measures light scatter and fluorescence of single cells or particles in a stream.

The target of experiment [6] is T1, NTS1R. Description: High-content imaging (HCI) competition binding, adherent CHO-hNTS1R cells. Conditions: labeled probe 13 ([…]), 90 min, 23 °C. The procedure: The final volume per well was 200 μL. […] All experiments were performed in triplicate.
The target of experiment [7] is T1, NTS1R. Description: Radiochemical competition binding, suspended CHO-hNTS1R cells. Conditions: labeled probe [^3H]13 (1.8 nM), 90 min, 23 °C.
Experiment [8] concerns the target T1, NTS1R. Put plainly: Radiochemical competition binding with [^3H]13 at membranes of CHO-hNTS1R cells. Conditions: labeled probe [^3H]13 ([…]), 50 μM GppNHp, 23 °C.
Experiment [9] has as its target NTS1R. Conditions: reported binding data, cited from earlier work.

For `C#CC[C@H](NC(=O)CCCN)C(=O)N[C@H](C(=O)N1CCC[C@H]1C(=O)N[C@@H](CCCNC(=N)N)C(=O)N[C@@H](CCCNC(=N)N)C(=O)N1CCC[C@H]1C(=O)N[C@@H](Cc1ccc(O)cc1)C(=O)N[C@H](C(=O)N[C@@H](CC(C)C)C(=O)O)[C@@H](C)CC)C1CCNCC1` [Compound 9] (H-[GABA][Pra][Gly(piperidin-4-yl)]PRRPYIL-OH), at NTS1R [1], the Ki is 0.302 nM.
As to `C#CCCC(=O)N[C@H](C(=O)N1CCC[C@H]1C(=O)N[C@@H](CCCNC(=N)NC(=O)NCCCCN)C(=O)N[C@@H](CCCNC(=N)N)C(=O)N1CCC[C@H]1C(=O)N[C@H](C(=O)N[C@H](C(=O)N[C@@H](CC(C)C)C(=O)O)[C@@H](C)CC)C(C)(C)c1ccc(O)cc1)C1CCNCC1` [Compound 10a, N^α-(Pent-4-ynoyl)-2-(piperidin-4-yl)-Gly-Pro-N^ω-[(4-aminobutyl)aminocarbonyl]Arg-Arg-Pro-β,β-dimethyl-L-Tyr-Ile-Leu Tetrakis(hydrotrifluoroacetate)] (Pent4ynoyl-[Gly(piperidin-4-yl)]PR([CO-NH(CH2)4NH2])RP[Tyr(β,β-Me2)]IL-OH), the EC50 on NTS1R [2] was 0.316 nM.
Take `CCC(=O)NCCCC[C@@H](NC(=O)CCc1cn(CCCNC(=O)c2ccc(-c3c4ccc(=[N+](C)C)cc-4oc4cc(N(C)C)ccc34)c(C(=O)[O-])c2)nn1)C(=O)N1CCC[C@H]1C(=O)N[C@@H](CCCNC(=N)N)C(=O)N[C@@H](CCCNC(=N)N)C(=O)N1CCC[C@H]1C(=O)N[C@@H](Cc1ccc(O)cc1)C(=O)N[C@H](C(=O)N[C@@H](CC(C)C)C(=O)O)[C@@H](C)CC` [Compound 15] (X1-[X2][dK](Propionyl)PRRPYIL-OH): the Ki at NTS1R [1] is 2.95 nM.
For the molecule `C#CCCC(=O)N[C@H](C(=O)N1CCC[C@H]1C(=O)N[C@@H](CCCNC(N)=NC(=O)NCCCCN)C(=O)N[C@@H](CCCNC(=N)N)C(=O)N1CCC[C@H]1C(=O)N[C@@H](Cc1ccc(O)cc1)C(=O)N[C@H](C(=O)N[C@@H](CC(C)C)C(=O)O)[C@@H](C)CC)C1CCNCC1` [Compound 6, N^α-(Pent-4-ynoyl)-2-(piperidin-4-yl)-Gly-Pro-N^ω-[(4-aminobutyl)aminocarbonyl]Arg-Arg-Pro-Tyr-Ile-Leu Tetrakis(hydrotrifluoroacetate)] (Pent4ynoyl-[Gly(piperidin-4-yl)]P[X4]RPYIL-OH), the Ki on NTS1R [1] is 0.603 nM.
For `CCC(=O)NCCCC(=O)N[C@@H](Cc1cn(CCCNC(=O)c2ccc(-c3c4ccc(=[N+](C)C)cc-4oc4cc(N(C)C)ccc34)c(C(=O)[O-])c2)nn1)C(=O)N[C@H](C(=O)N1CCC[C@H]1C(=O)N[C@@H](CCCNC(=N)N)C(=O)N[C@@H](CCCNC(=N)N)C(=O)N1CCC[C@H]1C(=O)N[C@@H](Cc1ccc(O)cc1)C(=O)N[C@H](C(=O)N[C@@H](CC(C)C)C(=O)O)[C@@H](C)CC)C1CCNCC1` [Compound 16], the Ki at NTS1R [1] is 0.724 nM.
Turning to SR142948, on NTS1R [3], the “RC adherent cells: pKi ± SEM” value worked out at 8.31 ± 0.18. In addition, the “FA: pKi ± SEM” value at NTS1R [4] (labeled probe 13 (0.3 nM), NTS1R-BBVs, 90 min) came out at 8.97. Moreover, at NTS1R [4] (labeled probe 18, NTS1R-BBVs), the “FA: pKi” value was 9.19. Besides, the “FC: pKi ± SEM” value at NTS1R [5] was determined as 9.24 ± 0.15. On NTS1R [6], the “HCI: pKi ± SEM” value was determined as 9.42 ± 0.21. The “RC cell suspension: pKi ± SEM” value on NTS1R [7] turned out to be 8.19 ± 0.16. Further, at NTS1R [8], the “pKi ± SEM” value was found to be 9.56 ± 0.06. The Ki was 1.1 nM on NTS1R [9] (ref 13) and 1 nM at NTS1R [9] (ref 52).
Turning to `C#CCCC(=O)N[C@H](C(=O)N1CCC[C@H]1C(=O)N[C@@H](CCCNC(N)=NC(=O)NCCCCN)C(=O)N[C@@H](CCCNC(=N)N)C(=O)N1CCC[C@H]1C(=O)N[C@@H](C(=O)N[C@H](C(=O)N[C@@H](CC(C)C)C(=O)O)[C@@H](C)CC)C(C)(C)c1ccc(O)cc1)C1CCNCC1` [Compound 10b, N^α-(Pent-4-ynoyl)-2-(piperidin-4-yl)-Gly-Pro-N^ω-[(4-aminobutyl)aminocarbonyl]Arg-Arg-Pro-β,β-dimethyl-D-Tyr-Ile-Leu Tetrakis(hydrotrifluoroacetate)] (Pent4ynoyl-[Gly(piperidin-4-yl)]P[X4]RP[dTyr(β,β-Me2)]IL-OH), on NTS1R [1], the Ki was 135 nM.
